According to publication PMC8400311, “Novel Anti-Melanogenic Compounds, (Z)-5-(Substituted Benzylidene)-4-thioxothiazolidin-2-one Derivatives: In Vitro and In Silico Insights” (Molecules, 2021):
Values joined by “and” are separate entries in the source; they are usually repeats but may differ in a detail not shown here. Equal entries are not always repeated. Blank lines part the entries; values can stand above or below the compound they belong to.

Key:
mushroom tyrosinase [1] = experiment: Mushroom tyrosinase inhibition assay; type: biochemical; settings: for IC50: L-tyrosine as substrate, mean of 3 experiments, read-out: IC50 against mushroom tyrosinase; for fold lower tyrosinase inhibitory activity than 2b: ratio of IC50 values vs 2b
Protocol: The absorbances of dopachrome produced in each well during incubation was measured at 450 nm using a microplate reader (VersaMax™, Molecular Devices, Sunnyvale, CA, USA). […] All experiments were independently conducted 3 times. To calculate the % inhibition of tyrosinase activity, the following formula was used: % inhibition = […], where A means the optical density of the test samples and B means the optical density of the non-treated control. To calculate the concentration necessary for 50% inhibition of enzyme activity (IC50), the % tyrosinase inhibition of each compound was obtained at 3 or more different concentrations. IC50 values were calculated by constructing a linear regression curve showing the concentration of the (Z)-BTTZ compounds on the x-axis and percentage inhibition on the y-axis. To obtain a negative control dimethyl sulfoxide (DMSO) was added instead of the (Z)-BTTZ compounds.

B16F10 melanoma cells [2] = experiment: Cell viability, EZ-Cytox assay; type: cell-based, murine; settings: concentrations ≤25 µM; 24 and 48 h for 2b and 2f, respectively
Protocol: Before examining the inhibitory effects of compounds 2b and 2f on tyrosinase and melanin biosynthesis, we investigated their cytotoxic effects using murine B16F10 melanoma cells. The cells were treated with different concentrations of 2b or 2f (0, 1, 2.5, 5, 10, or 25 µM) for 24 and 48 h (Figure 7), respectively, and the cell viabilities were assessed using the EZ-Cytox assay.
Cell viability assays of compounds 2b and 2f were performed using B16F10 melanoma cells and the EZ-Cytox assay (EZ-3000, DoGenBio, Seoul, Korea), as previously described. Briefly, cells were seeded at a density of 1 × 10^4 cells/well in a 96-well plate for 24 h, and then were exposed to different concentrations (0, 1, 2.5, 5, 10, or 25 µM) of 2b or 2f and incubated at 37 °C for 24 and 48 h, respectively. EZ-Cytox solution (10 µL) was then added to each well and cells were incubated at 37 °C for 2 h. Absorbances were measured at 450 nm using a microplate reader (VersaMax^TM, Molecular Devices, Sunnyvale, CA, USA). Each assay was performed in triplicate.
Figure 7 The cytotoxic effects of compounds 2b (a) and 2f (b) on B16F10 melanoma cells at concentrations of 1, 2.5, 5, 10, or 25 µM. Cell viabilities were determined using the EZ-Cytox assay and are expressed as percentages versus non-treated controls. Bars present standard errors.

B16F10 melanoma cells [3] = experiment: Melanin content assay in α-MSH-stimulated cells; type: cell-based, murine; settings: for reduction in melanin content: 48 h
Protocol: Melanin content assays were used to evaluate the inhibitory effects of compounds 2b and 2f on α-MSH-stimulated melanogenesis. […] The inhibitory activities on α-MSH-stimulated melanogenesis were determined by measuring melanin optical densities. The anti-melanogenesis activities of compounds 2b and 2f were assessed using a standard melanin content assay with minor modifications. Briefly, B16F10 cells were seeded at a density of 5 × 10^4/well in a 24-well plate and allowed to adhere to wells in a DMEM solution containing penicillin/streptomycin (100 IU/100 µg/mL) and 10% heat-inactivated FBS in a standard humidified 5% CO2 atmosphere at 37 °C. […] Cells were then rinsed twice with PBS and lysed in 200 µL of 1N NaOH containing 10% dimethyl sulfoxide (DMSO) for 1 h at 60 °C. Lysates were transferred to the wells of a 96-well plate, and melanin absorbances were measured at 405 nm using a microplate reader (VersaMax^TM, Molecular Devices, Sunnyvale, CA, USA). All experiments were conducted three times in triplicate. […] Bars represent standard errors.

[4] = system: cellular tyrosinase in B16F10 melanoma cells; experiment: Cellular tyrosinase activity assay (L-DOPA oxidation) in α-MSH-stimulated cells; type: cell-based, murine; settings: for reduction in cellular tyrosinase activity: 48 h
Protocol: The inhibitory activities of compounds 2b and 2f against cellular tyrosinase were assessed using α-MSH-stimulated melanoma cells. […] The inhibitory effects on tyrosinase activity were evaluated by measuring optical densities.
Tyrosinase activities were assessed by determining the L-DOPA oxidation rate, as described previously with minor modifications. […] Cells were then rinsed twice with PBS, exposed to 100 µL of lysis buffer (90 µL of 50 mM phosphate buffer pH 6.8; 5 µL of 2 mM PMSF; 5 µL of 20% Triton), and frozen at −80 °C for 30 min. After defrosting, lysates were centrifuged at 12,000 g for 30 min at 4 °C, and supernatants (80 µL) were mixed with 10 mM L-DOPA (20 µL) in a 96-well plate. Absorbances were measured at 490 nm at 37 °C every 10 min for 1 h using a microplate reader (VersaMax^TM, Molecular Devices, Sunnyvale, CA, USA). All experiments were carried out three times in triplicate.
Bars represent standard errors.

mushroom tyrosinase [5] = experiment: Kinetic study of mushroom tyrosinase inhibition (Lineweaver–Burk plots); type: biochemical; settings: L-tyrosine 0.5–8.0 mM
Protocol: To investigate the modes of action of compounds 2b and 2f, a kinetic study was performed using mushroom tyrosinase and different concentrations of L-tyrosine as a substrate in the presence of 2b or 2f. As depicted in Figure 4, inhibitory mechanisms were determined using Lineweaver–Burk plot analysis. The Lineweaver–Burk plot patterns of 2b and 2f were similar. The plots obtained at different concentrations of 2b and 2f merged at single points on the y-axis. Regardless of the concentration, the Vmax values of 2b and 2f were independent of concentration, whereas their KM values increased concentration-dependently.
Compounds 2b or 2f (10 µL, final concentrations: 0, 0.05, 0.1, or 0.2 µM for 2b and 0, 2, 4, or 8 µM for 2f) and mushroom tyrosinase solution (20 µL, 150 units) were added to the wells of a 96-well plate containing aqueous solutions (170 µL) containing L-tyrosine at 0.5, 1.0, 2.0, 4.0, or 8.0 mM (final concentrations), distilled water, and potassium phosphate buffer (final concentration: 14.7 mM, pH 6.5), in the ratio 10:9:10. Initial rates of dopachrome formation in reaction mixtures were calculated by measuring increases in absorbances at 492 nm (ΔOD492/min) using a microplate reader (VersaMax^TM, Molecular Devices, Sunnyvale, CA, USA). […] Modes of tyrosinase inhibition were determined using points of convergence. […]

[6] = 25 µM compound, α-MSH 0.5 µM, 48 h (α-MSH alone 1.61-fold)

Structure (SMILES): O=C1NC(=S)/C(=C/c2ccc(O)cc2O)S1 [Compound 2b, (Z)-5-(2,4-Dihydroxybenzylidene)-4-thioxothiazolidin-2-one]
cytotoxic effect on B16F10 cells (B16F10 melanoma cells [2]): Neither 2b nor 2f exhibited any significant cytotoxic effect
reduction in melanin content (B16F10 melanoma cells [3]; 5 µM compound, α-MSH 0.5 µM): 26%
melanin level versus non-treated controls (B16F10 melanoma cells [3]; 5 µM compound, α-MSH 0.5 µM, 48 h (α-MSH alone 1.61-fold)): 1.19 fold
reduction in melanin content (B16F10 melanoma cells [3]; 10 µM compound, α-MSH 0.5 µM): 44%
melanin level versus non-treated controls (B16F10 melanoma cells [3]; 10 µM compound, α-MSH 0.5 µM, 48 h (α-MSH alone 1.61-fold)): 0.91 fold
reduction in melanin content (B16F10 melanoma cells [3]; 25 µM compound, α-MSH 0.5 µM): 47%
melanin level versus non-treated controls (B16F10 melanoma cells [3]; [6]): 0.85 fold
reduction in cellular tyrosinase activity ([4]; 5 µM compound, α-MSH 0.5 µM): 16%
cellular tyrosinase activity versus non-treated cells ([4]; 5 µM compound, α-MSH 0.5 µM, 48 h (α-MSH alone 2.19-fold)): 1.85 fold
reduction in cellular tyrosinase activity ([4]; 10 µM compound, α-MSH 0.5 µM): 32%
cellular tyrosinase activity versus non-treated cells ([4]; 10 µM compound, α-MSH 0.5 µM, 48 h (α-MSH alone 2.19-fold)): 1.48 fold
reduction in cellular tyrosinase activity ([4]; 25 µM compound, α-MSH 0.5 µM): 45%
cellular tyrosinase activity versus non-treated cells ([4]; 25 µM compound, α-MSH 0.5 µM, 48 h (α-MSH alone 2.19-fold)): 1.20 fold
mode of mushroom tyrosinase inhibition (mushroom tyrosinase [5]): competitive
fold higher inhibitory potency than kojic acid (mushroom tyrosinase) (mushroom tyrosinase [1]; ratio of IC50 values vs kojic acid): 141 fold and > 100 fold

Structure (SMILES): CCOc1cc(/C=C2\SC(=O)NC2=S)ccc1O [Compound 2e, (Z)-5-(3-Ethoxy-4-hydroxybenzylidene)-4-thioxothiazolidin-2-one]
IC50 (mushroom tyrosinase [1]): 92.81 ± 0.89 µM

Structure (SMILES): COc1cc(/C=C2\SC(=O)NC2=S)cc(OC)c1O [Compound 2g, (Z)-5-(4-Hydroxy-3,5-dimethoxybenzylidene)-4-thioxothiazolidin-2-one]
IC50 (mushroom tyrosinase [1]): 82.4 ± 1.26 µM

Structure (SMILES): O=C1NC(=S)/C(=C/c2ccccc2O)S1 [Compound 2h, (Z)-5-(2-Hydroxybenzylidene)-4-thioxothiazolidin-2-one]
IC50 (mushroom tyrosinase [1]): 147.6 ± 0.96 µM
fold lower tyrosinase inhibitory activity than 2b (mushroom tyrosinase [1]): 314 fold

Structure (SMILES): COc1ccc(/C=C2\SC(=O)NC2=S)c(OC)c1 [Compound 2k, (Z)-5-(2,4-Dimethoxybenzylidene)-4-thioxothiazolidin-2-one]
IC50 (mushroom tyrosinase [1]): 126.4 ± 0.46 µM

Structure (SMILES): O=c1cc(CO)occ1O [Kojic acid, reference compound]
reduction in melanin content (B16F10 melanoma cells [3]; 25 µM compound, α-MSH 0.5 µM): 14%
melanin level versus non-treated controls (B16F10 melanoma cells [3]; [6]): 1.38 fold
reduction in melanin content (B16F10 melanoma cells [3]; 25 µM compound, α-MSH 1.0 µM): 45%
reduction in cellular tyrosinase activity ([4]; 25 µM compound, α-MSH 0.5 µM): 14%
reduction in cellular tyrosinase activity ([4]; 25 µM compound, α-MSH 1.0 µM): 33%

Now from value to compound, other results behind:

IC50 (mushroom tyrosinase [1]): 28.1 ± 1.16 µM
fold lower tyrosinase inhibitory activity than 2b (mushroom tyrosinase [1]): 60 fold
Structure (SMILES): O=C1NC(=S)/C(=C/c2ccc(O)cc2)S1 [Compound 2a, (Z)-5-(4-Hydroxybenzylidene)-4-thioxothiazolidin-2-one]

IC50 (mushroom tyrosinase [1]): 47.4 ± 2.18 µM
Structure (SMILES): O=C1NC(=S)/C(=C/c2ccc(O)c(O)c2)S1 [Compound 2c, (Z)-5-(3,4-Dihydroxybenzylidene)-4-thioxothiazolidin-2-one]

IC50 (mushroom tyrosinase [1]): 70.8 ± 1 µM
fold lower mushroom tyrosinase inhibitory activity than compound 2f (mushroom tyrosinase [1]; ratio of IC50 values vs 2f): 4.6 fold
Structure (SMILES): COc1cc(/C=C2\SC(=O)NC2=S)ccc1O [Compound 2d, (Z)-5-(4-Hydroxy-3-methoxybenzylidene)-4-thioxothiazolidin-2-one]

mode of mushroom tyrosinase inhibition (mushroom tyrosinase [5]): competitive
IC50 (mushroom tyrosinase [1]): 15.2 ± 1.68 µM
Structure (SMILES): COc1ccc(/C=C2\SC(=O)NC2=S)cc1O [Compound 2f, (Z)-5-(3-Hydroxy-4-methoxybenzylidene)-4-thioxothiazolidin-2-one]
cytotoxic effect on B16F10 cells (B16F10 melanoma cells [2]): Neither 2b nor 2f exhibited any significant cytotoxic effect
reduction in melanin content (B16F10 melanoma cells [3]; 5 µM compound, α-MSH 1.0 µM): 14%
melanin level versus non-treated controls (B16F10 melanoma cells [3]; 5 µM compound, α-MSH 1.0 µM, 48 h (α-MSH alone 3.51-fold)): 3.03 fold
reduction in melanin content (B16F10 melanoma cells [3]; 10 µM compound, α-MSH 1.0 µM): 46%
melanin level versus non-treated controls (B16F10 melanoma cells [3]; 10 µM compound, α-MSH 1.0 µM, 48 h (α-MSH alone 3.51-fold)): 1.88 fold
reduction in melanin content (B16F10 melanoma cells [3]; 25 µM compound, α-MSH 1.0 µM): 60%
melanin level versus non-treated controls (B16F10 melanoma cells [3]; 25 µM compound, α-MSH 1.0 µM, 48 h (α-MSH alone 3.51-fold)): 1.42 fold
reduction in cellular tyrosinase activity ([4]; 5 µM compound, α-MSH 1.0 µM): 23%
cellular tyrosinase activity versus non-treated cells ([4]; 5 µM compound, α-MSH 1.0 µM, 48 h (α-MSH alone 2.84-fold)): 2.20 fold
reduction in cellular tyrosinase activity ([4]; 10 µM compound, α-MSH 1.0 µM): 46%
cellular tyrosinase activity versus non-treated cells ([4]; 10 µM compound, α-MSH 1.0 µM, 48 h (α-MSH alone 2.84-fold)): 1.54 fold
reduction in cellular tyrosinase activity ([4]; 25 µM compound, α-MSH 1.0 µM): 59%
cellular tyrosinase activity versus non-treated cells ([4]; 25 µM compound, α-MSH 1.0 µM, 48 h (α-MSH alone 2.84-fold)): 1.18 fold

IC50 (mushroom tyrosinase [1]): 26.3 ± 4.1 µM
Structure (SMILES): O=C1NC(=S)/C(=C/c2ccc(O)c(Br)c2)S1 [Compound 2i, (Z)-5-(3-Bromo-4-hydroxybenzylidene)-4-thioxothiazolidin-2-one]

IC50 (mushroom tyrosinase [1]): 30.8 ± 1.41 µM
Structure (SMILES): COc1ccc(/C=C2\SC(=O)NC2=S)cc1 [Compound 2j, (Z)-5-(4-Methoxybenzylidene)-4-thioxothiazolidin-2-one]

IC50 (mushroom tyrosinase [1]): 23.3 ± 0.28 µM
Structure (SMILES): COc1ccc(/C=C2\SC(=O)NC2=S)cc1OC [Compound 2l, (Z)-5-(3,4-Dimethoxybenzylidene)-4-thioxothiazolidin-2-one]
